The target in data set [1] is T1, Ebola L polymerase (Zaire ebolavirus, UniProt Q05318). Format: cell-based, Ebola virus. Conditions: 15 μM.
For data set [2], the target named is T2, Ebola VP40 protein (Zaire ebolavirus, UniProt Q05128). Format: cell-based, Ebola virus.
The test system of the next data set is EBOV-Mak. The data set is described as follows: microbe, parasite or virus in culture. The following applies: Zaire ebolavirus, Huh-7, read-out: IC50, inhibition of Ebola infectivity. Format: cell-based.
The test system of a further data set is Huh7 cells. Conditions: human.
Data set [3] addresses T1, Ebola L polymerase. The data set is described as follows: cell-based. More on the design: species or system Ebola virus.
Data set [4] addresses T2, Ebola VP40 protein. The class given is cell-based, Ebola virus. The source holds these as a separate data set.

Structures can show the parent of a compound that is named as a salt. Where two headings read alike, the source gives them in different places.

The term IC50 denotes the concentration at which inhibition is half-maximal.

T2 sequence (Q05128 whole entry, looked up): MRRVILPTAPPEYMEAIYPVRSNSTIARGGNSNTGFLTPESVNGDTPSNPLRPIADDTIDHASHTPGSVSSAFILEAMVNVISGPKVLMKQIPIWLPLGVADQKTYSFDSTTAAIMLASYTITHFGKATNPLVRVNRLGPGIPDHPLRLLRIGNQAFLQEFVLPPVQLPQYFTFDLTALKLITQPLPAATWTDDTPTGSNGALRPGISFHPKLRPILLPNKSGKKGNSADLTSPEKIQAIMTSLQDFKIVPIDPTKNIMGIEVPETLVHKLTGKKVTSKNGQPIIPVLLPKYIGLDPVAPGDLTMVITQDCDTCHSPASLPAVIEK
T1 sequence (Q05318 whole entry, looked up): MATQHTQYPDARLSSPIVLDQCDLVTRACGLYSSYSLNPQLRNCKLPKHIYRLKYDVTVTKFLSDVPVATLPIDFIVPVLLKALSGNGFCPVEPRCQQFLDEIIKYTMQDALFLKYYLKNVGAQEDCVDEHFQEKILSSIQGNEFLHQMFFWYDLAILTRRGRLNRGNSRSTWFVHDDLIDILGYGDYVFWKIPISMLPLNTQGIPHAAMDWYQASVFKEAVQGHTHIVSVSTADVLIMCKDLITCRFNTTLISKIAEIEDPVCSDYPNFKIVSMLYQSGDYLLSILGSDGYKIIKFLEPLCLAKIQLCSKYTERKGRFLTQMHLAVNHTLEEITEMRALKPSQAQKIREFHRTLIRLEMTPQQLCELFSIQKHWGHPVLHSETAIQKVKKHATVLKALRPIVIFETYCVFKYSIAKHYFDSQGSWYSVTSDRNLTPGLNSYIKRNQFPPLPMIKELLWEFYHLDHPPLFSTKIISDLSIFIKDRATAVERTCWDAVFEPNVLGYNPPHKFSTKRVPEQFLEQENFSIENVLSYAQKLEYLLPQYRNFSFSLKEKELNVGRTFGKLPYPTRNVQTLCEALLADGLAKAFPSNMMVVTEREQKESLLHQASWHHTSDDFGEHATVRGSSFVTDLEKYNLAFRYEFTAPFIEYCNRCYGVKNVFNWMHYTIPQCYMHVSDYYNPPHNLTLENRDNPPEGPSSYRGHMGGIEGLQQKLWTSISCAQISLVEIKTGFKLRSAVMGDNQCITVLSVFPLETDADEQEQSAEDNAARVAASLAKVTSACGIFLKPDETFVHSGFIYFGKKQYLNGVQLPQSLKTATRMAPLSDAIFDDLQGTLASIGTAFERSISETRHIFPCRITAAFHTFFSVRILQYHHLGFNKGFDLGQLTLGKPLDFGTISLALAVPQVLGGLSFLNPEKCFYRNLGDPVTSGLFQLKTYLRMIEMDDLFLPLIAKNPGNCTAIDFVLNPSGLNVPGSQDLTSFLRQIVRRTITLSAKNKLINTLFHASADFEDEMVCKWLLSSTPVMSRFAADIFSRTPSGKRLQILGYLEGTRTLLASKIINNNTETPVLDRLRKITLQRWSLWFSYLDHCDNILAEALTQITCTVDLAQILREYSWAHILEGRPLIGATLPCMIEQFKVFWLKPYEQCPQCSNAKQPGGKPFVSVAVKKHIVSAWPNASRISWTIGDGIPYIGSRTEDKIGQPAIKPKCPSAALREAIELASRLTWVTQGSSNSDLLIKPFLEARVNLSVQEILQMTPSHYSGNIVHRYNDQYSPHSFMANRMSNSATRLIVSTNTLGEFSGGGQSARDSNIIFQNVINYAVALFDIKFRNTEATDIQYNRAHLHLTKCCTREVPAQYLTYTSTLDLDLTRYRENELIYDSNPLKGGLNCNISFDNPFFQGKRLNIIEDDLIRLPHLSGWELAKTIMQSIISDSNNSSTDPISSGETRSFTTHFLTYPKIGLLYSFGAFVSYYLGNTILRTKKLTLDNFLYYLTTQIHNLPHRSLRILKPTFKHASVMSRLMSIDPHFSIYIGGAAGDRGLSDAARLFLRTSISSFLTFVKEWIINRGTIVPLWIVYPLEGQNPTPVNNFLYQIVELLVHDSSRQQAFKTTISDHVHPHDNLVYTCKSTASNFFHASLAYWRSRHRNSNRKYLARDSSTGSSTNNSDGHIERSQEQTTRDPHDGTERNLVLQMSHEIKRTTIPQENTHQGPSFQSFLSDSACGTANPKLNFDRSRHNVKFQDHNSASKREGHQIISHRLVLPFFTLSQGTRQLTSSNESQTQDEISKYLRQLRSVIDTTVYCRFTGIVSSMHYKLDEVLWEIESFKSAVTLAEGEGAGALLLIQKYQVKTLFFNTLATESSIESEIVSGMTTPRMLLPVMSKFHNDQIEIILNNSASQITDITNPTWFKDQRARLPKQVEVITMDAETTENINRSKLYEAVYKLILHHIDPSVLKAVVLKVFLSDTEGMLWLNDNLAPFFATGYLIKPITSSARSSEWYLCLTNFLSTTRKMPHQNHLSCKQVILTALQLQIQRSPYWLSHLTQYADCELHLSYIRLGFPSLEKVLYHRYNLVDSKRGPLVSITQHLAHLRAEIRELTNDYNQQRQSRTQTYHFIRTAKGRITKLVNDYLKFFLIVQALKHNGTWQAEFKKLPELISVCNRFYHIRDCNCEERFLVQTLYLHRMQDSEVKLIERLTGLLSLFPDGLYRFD

On to `NC(=O)c1cn([C@@H]2O[C@H](CO)[C@@H](O)[C@H]2O)c2ncnc(N)c12` [sangivamycin HCl, 4-amino-7-((2R,3R,4S,5R)-3,4-dihydroxy-5-(hydroxymethyl)tetrahydrofuran-2-yl)-7H-pyrrolo[2,3-d]pyrimidine-5-carboxamide (sangivamycin) hydrochloride], for which, at Ebola L polymerase [1] (hydrochloride), the “% EGFP signal” value came out at 20% and the “% mCherry signal” value stood at 10%.
For `NC(=O)c1cn([C@@H]2O[C@H](CO)[C@@H](O)[C@H]2O)c2ncnc(N)c12` [sangivamycin, 4-amino-7-((2R,3R,4S,5R)-3,4-dihydroxy-5-(hydroxymethyl)tetrahydrofuran-2-yl)-7H-pyrrolo[2,3-d]pyrimidine-5-carboxamide], at Ebola VP40 protein [2] (50 nM), the “VLP isolated (western blot for VP40)” value is on record as “clear reduction in VLP”. The “VLP isolated (western blot for VP40)” value at Ebola VP40 protein [2] (500 nM) is “drastic reduction in VLP”. The IC50 with EBOV-Mak is about 100 nM. In the data set with Huh7 cells, this molecule registered a 50% cytotoxicity concentration of over 600 nM. Further, on Ebola L polymerase [1], the “% EGFP signal” value came out at 27% and the “% mCherry signal” value was 4%. This molecule also came in with an IC50 on Ebola L polymerase [3] of 30 nM. Moreover, at Ebola VP40 protein [4], the “EGFP fluorescent signal, % of solvent control signal, dose-response” value was “largest decrease in signal” and the “concentration at which VLP formation in the cell is prevented (shift in membrane associated VP40)” value is listed as “above 37.5 nM”.

The values above are taken from US11617753B2 (priority 2016, dated 2023).
